The text below walks through data of patent US10907219B2, “Compositions and methods for controlling cellular function” (STC.UNM, priority 2014, dated 2021).

What all share (format): cell-based
Data set [1] concerns CHO cells transfected with ABA-inducible luciferase constructs. Kind of data set: ABA-inducible luciferase assay.
The test system of data set [2] is HEK 293T eGFP reporter cells (VP-PYL and GAL4DBD-ABI). Kind of data set: H2O2-induced eGFP expression (transcriptional activation). An excerpt: To determine if the ABA generated from the H2O2-induced cleavage of ABA-HP is biologically active, we tested whether it could induce downstream biological processes. We first investigated H2O2-induced transcriptional activation using an HEK 293T stable cell line, in which enhanced GFP (eGFP) expression occurs only in the presence of functional ABA. The cell line was created with both the ABA-responsive split transcriptional activator DNA fragment (VP-PYL and GAL4DBD-ABI linked by IRES; Liang et al., 2011, Sci. Signal. 4, rs2) and an inducible eGFP DNA fragment (with 5×UAS) inserted into the genome (FIG. 2a).
We tested the response of our system to H2O2 at physiologically relevant concentrations under cell culture conditions. The eGFP reporter cells were treated with no drug, or 10 μM of ABA, ABA-HP, or ABA-HP exposed to H2O2 (1, 5 or 10 eq) for five to 24 hours. The expression of eGFP was monitored at specific time points using a fluorescence microscope. […] Alternatively, for cellular experiments, cell culture media can be exchanged regularly with media containing fresh ABA-HP and thus restrict the build-up of esterase-cleaved ABA.
EGFP expression experiments: HEK 293T (GFP) cells were seeded 24 hours prior to treatment in 24-well plates at 100 K/well. 10 μM ABA-HP was added to the cells 10 minutes prior to the addition of 10 μM ABA and 10, 50, or 100 μM of H2O2. Images were taken for living cells at 5 hours, 7 hours, 10 hours and 24 hours.
(§1) An Axio Observer D1 fluorescent microscope (Carl Zeiss AG, Oberkochen, Germany) outfitted with HBO 100 microscopy illumination system (Carl Zeiss AG, Oberkochen, Germany; GFP: excitation 470/40 and emission 525/50) was used to analyze GFP expression and NES localization. A 20× objective was used to analyze GFP expression. A 63× objective was used for NES localization.

Data set [3] has as its system NES-ABI and PYL-eGFP in CHO cells. Kind of data set: H2O2-induced ABA-mediated eGFP nuclear exporting (NES localization). As for the experimental part: Various cellular events are regulated by the dynamic sub-cellular translocation of proteins. To test if protein translocation can be controlled by H2O2, we used a known ABA-inducible eGFP nuclear exporting system consisting of NES-ABI and PYL-eGFP DNA constructs (FIG. 2a; Liang et al., 2011, Sci. Signal. 4, rs2). CHO cells were transfected with both plasmids for 24 hours and then incubated without additive, or with 10 μM of ABA, ABA-HP, or ABA-HP plus 10 eq of H2O2 for one hour.
NES localization experiments: CHO cells were seeded in 24-well plates at 50 K/well with coverslip for 24 hours. 0.4 μg NES-ABI and 0.2 μg eGFP-PYL (FIG. 2a, ii) of DNA plasmid were used for each well, with 30 μL of Opti-MEM (Life Technologies, Carlsbad, Calif.) and 1.8 μL of PEI. After incubation at room temperature for 15 min, the mixture was added to the cells and cultured for 24 hours. Then, 10 μM ABA-HP was added to the cells 10 minutes prior to the addition of 10 μM ABA and 100 μM of H2O2, or 10 μM GA-HP was added to the cells 10 minutes prior to the addition of 10 μM GA-AM and 100 μM of H2O2. Slides were made 30 minutes after addition of compounds and images were taken the next day.
as §1

Data set [4] concerns myr-ABI and PYL-eGFP-Tiam1 in CHO cells. Description: H2O2-induced ruffle formation (Tiam1 membrane localization). An excerpt: To further investigate whether a complex biological process can be triggered by H2O2-induced protein dimerization, we examined the membrane ruffle formation resulting from localized Rho GTPase activation. Tiam1 is a guanine exchange factor for Rac, a member of Rho GTPase. The membrane translocation of Tiam1 activated Rac signaling pathway and induced ruffle formation, which is involved in cell migration and morphogenesis. We constructed an ABA-inducible Tiam1 membrane localization system, which consists of DNA plasmids encoding the membrane-localized ABI (myr-ABI; Liang et al., 2011, Sci. Signal. 4, rs2) and the cytoplasmic eGFP/PYL-fused Tiam1 (PYL-eGFP-Tiam1) (FIG. 2a). CHO cells were transfected with these plasmids for 24 hours and then incubated for one hour without additive, or with 10 μM of ABA, ABA-HP or ABA-HP plus 10 eq of H2O2. The ruffle formation in cells was analyzed by the confocal microscopy.
Ruffle generation experiment: CHO were seeded in 24-well plates at 50 K/well with coverslip for 24 hours. 0.1 μg PYL-eGFP-Tiam1 and 0.1 μg myr-ABI (FIG. 2a, iii) of DNA plasmid were used for each well, with 30 μL of Opti-MEM (Life Technologies, Carlsbad, Calif.) and 1.8 μL PEI. After incubation at room temperature for 15 min, the mixture was added to the cells and cultured for 24 hours. […]

The mark [5] stands for this setting: 10 μM plus 10 eq of H2O2, CHO cells.
Setting [6] is: 10 μM, compound alone, CHO cells.

For the compound `COc1cc(COC(=O)/C=C(C)\C=C\[C@@]2(O)C(C)=CC(=O)CC2(C)C)c([N+](=O)[O-])cc1OC` [ABA-DMNB], the “dose dependence of luciferase expression” value in data set [1] (increasing concentrations, with irradiation) is given as “corresponding increases in the level of luciferase expression”. The luciferase expression entry in data set [1] (irradiated 365 nm UV 120 seconds in cell culture, twelve hours) was “induced luciferase expression”.

In the case of `CC1=CC(=O)CC(C)(C)[C@@]1(O)/C=C/C(C)=C\C(=O)OCc1ccc(B2OC(C)(C)C(C)(C)O2)cc1` [ABA-HP], the eGFP expression result in data set [2] (10 μM plus H2O2 (1, 5 or 10 eq), after five hours) was “eGFP expression could be observed after five hours”; in data set [2] (10 μM, compound alone, extended incubation 24 hours) it was “eGFP expression was indeed observed”; in data set [2] (10 μM, compound alone, no H2O2, within 10 hours), “not observed within a 10-hour period”. Moreover, the “dependence of eGFP expression on H2O2 level” value in data set [2] (10 μM plus different amounts of H2O2) was “dose-dependent eGFP expression”. Besides, the stability within cells result in data set [2] (10 μM, no H2O2, inferred from absent eGFP expression) is on record as “at least 10 hours”. Further, the “sub-cellular location of PYL-eGFP” value is “caused rapid nuclear export” in data set [3] (setting [5]) and “did not change the sub-cellular location of eGFP-PYL” in data set [3] (setting [6]). Besides, in data set [4] (setting [5]), the ruffle formation result is given as “showed obvious ruffle formation”.

For `CC1=CC(=O)CC(C)(C)C1(O)/C=C/C(C)=C\C(=O)O` (centres unmarked) [ABA, abscisic acid, reference compound], the eGFP expression entry in data set [2] (10 μM, compound alone, after five hours) is “eGFP expression could be observed after five hours”. Also, the “sub-cellular location of PYL-eGFP” value in data set [3] (setting [6]) is reported as “localized out of the nucleus”. Further, the ruffle formation result in data set [4] (setting [6]) is given as “showed obvious ruffle formation”. For the same compound, in data set [1] (increasing dosages, not irradiated), the “dose dependence of gene expression” value is recorded as “dose-dependent induction of gene expression”.
